Source: ChEMBL document CHEMBL1201862, “PubChem BioAssay data set” (2004)
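Results reflect a 48-hour exposure of cells in 96-well plates to compound at five concentrations. Abbreviation: GI50, concentration required for 50% inhibition of growth.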 The source made the active and inactive calls. No stated cut-off is given here; in the data, active = GI50 up to about 1.1 µM and inactive = higher.

Tests used:
Assay in all cases: NCI anticancer screen, dose series, 48 h
[1] = tested on: CAKI-1
[2] = tested on: HCC 2998
[3] = tested on: HT-29
[4] = tested on: Hs-578T
[5] = tested on: K562
[6] = tested on: LOX IMVI
[7] = tested on: MCF7
[8] = tested on: MDA-N
[9] = tested on: NCI-H226
[10] = tested on: OVCAR-5
[11] = tested on: PC-3
[12] = tested on: SF-268
[13] = tested on: SF-539
[14] = tested on: SK-MEL-2
[15] = tested on: SK-MEL-5
[16] = tested on: SN12C
[17] = tested on: SNB-75
[18] = tested on: SW-620
[19] = tested on: T47D
[20] = tested on: TK-10

Compound | GI50 [1] | GI50 [2] | GI50 [3] | GI50 [4] | GI50 [5] | GI50 [6] | GI50 [7] | GI50 [8] | GI50 [9] | GI50 [10] | GI50 [11] | GI50 [12] | GI50 [13] | GI50 [14] | GI50 [15] | GI50 [16] | GI50 [17] | GI50 [18] | GI50 [19] | GI50 [20]
CC(CN(C)C)C(C#N)(c1ccccc1)c1ccccc1 (stereo not given) | > 100 µM (inactive) | 43.8 µM (inactive) | 63.7 µM (inactive) | > 100 µM (inactive) | 65.2 µM (inactive) | > 100 µM (inactive) | > 100 µM (inactive) | > 100 µM (inactive) | > 100 µM (inactive) | > 100 µM (inactive) | 47.6 µM (inactive) | > 100 µM (inactive) | > 100 µM (inactive) | > 100 µM (inactive) | > 100 µM (inactive) | > 100 µM (inactive) | > 100 µM (inactive) | > 100 µM (inactive) | > 100 µM (inactive) | > 100 µM (inactive)
CC1=C(C)CC(C#N)(C#N)C(C#N)(C#N)C1 | > 10 µM (inactive) | > 10 µM (inactive) | > 5.78 µM (inactive) | > 10 µM (inactive) | 2.2 µM (inactive) | > 10 µM (inactive) | > 5.65 µM (inactive) | > 4.78 µM (inactive) | > 10 µM (inactive) | > 10 µM (inactive) | > 6.35 µM (inactive) | > 10 µM (inactive) | > 10 µM (inactive) | > 10 µM (inactive) | > 6.19 µM (inactive) | > 9.12 µM (inactive) | > 10 µM (inactive) | 2.31 µM (inactive) | > 5.71 µM (inactive) | > 5.05 µM (inactive)
COc1ccc(C(O)CC(O)(C(F)(F)F)C(F)(F)F)cc1 (stereo not given) | 15 µM (inactive) | 38 µM (inactive) | 28.8 µM (inactive) | 16.3 µM (inactive) | 25.6 µM (inactive) | 18.2 µM (inactive) | 61.4 µM (inactive) | 46.2 µM (inactive) | 23.2 µM (inactive) | 27.5 µM (inactive) | 11 µM (inactive) | 39.9 µM (inactive) | 21.7 µM (inactive) | 17.6 µM (inactive) | 21.2 µM (inactive) | 24.8 µM (inactive) | 1.7 µM (inactive) | 33 µM (inactive) | 41.8 µM (inactive) | 44.7 µM (inactive)
COc1ccc(CC2c3cc(OC)c(OC)c(OC)c3CC[N+]2(C)C)cc1Oc1ccc(CC2c3cc4c(c(OC)c3CCN2C)OCO4)cc1 (stereo not given) | > 100 µM (inactive) | > 100 µM (inactive) | > 100 µM (inactive) | > 100 µM (inactive) | 57.5 µM (inactive) | > 100 µM (inactive) | > 100 µM (inactive) | > 100 µM (inactive) | > 100 µM (inactive) | > 100 µM (inactive) | > 100 µM (inactive) | > 100 µM (inactive) | > 100 µM (inactive) | > 100 µM (inactive) | 96.6 µM (inactive) | > 100 µM (inactive) | > 100 µM (inactive) | > 100 µM (inactive) | > 100 µM (inactive) | > 100 µM (inactive)
O=C(NC(=S)Nc1ccc2c(c1)Sc1ccccc1O2)c1ccccc1 | 47.8 µM (inactive) | 7.46 µM (inactive) | 35.4 µM (inactive) | 39.6 µM (inactive) | 6.27 µM (inactive) | 39.1 µM (inactive) | 34.2 µM (inactive) | 3.94 µM (inactive) | 53.7 µM (inactive) | 77.3 µM (inactive) | 11.2 µM (inactive) | 41.4 µM (inactive) | 22.6 µM (inactive) | 14.1 µM (inactive) | 20.8 µM (inactive) | 50.1 µM (inactive) | 15.7 µM (inactive) | 32.1 µM (inactive) | 41.3 µM (inactive) | 20.8 µM (inactive)
COC(=O)c1cc2c(cc1O)[C@@H](NC(C)=O)CCc1cc(OC)c(OC)c(OC)c1-2 | 0.0993 µM (active) | 0.0578 µM (active) | 0.044 µM (active) | 0.017 µM (active) | 0.0412 µM (active) | 0.0501 µM (active) | < 0.01 µM (active) | 0.0277 µM (active) | 0.023 µM (active) | > 10 µM (inactive) | 0.0509 µM (active) | 0.0792 µM (active) | 0.0294 µM (active) | 0.084 µM (active) | 0.0235 µM (active) | 0.127 µM (active) | 0.0299 µM (active) | 0.108 µM (active) | > 10 µM (inactive) | > 10 µM (inactive)
NC1c2c(Cl)sc(Cl)c2C(=O)C1O (stereo not given) | 24.4 µM (inactive) | 17 µM (inactive) | 19.7 µM (inactive) | 35.1 µM (inactive) | 29.4 µM (inactive) | 23.4 µM (inactive) | 18.9 µM (inactive) | 44.4 µM (inactive) | > 100 µM (inactive) | > 100 µM (inactive) | > 100 µM (inactive) | 43.1 µM (inactive) | 76.2 µM (inactive) | 73.8 µM (inactive) | 26.9 µM (inactive) | 15.8 µM (inactive) | 33.6 µM (inactive) | 17.4 µM (inactive) | > 100 µM (inactive) | > 100 µM (inactive)
